{"source": "patent EP1972333A1", "about": "“Stabilised aqueous solutions of ergolin compounds” (Axxonis Pharma AG, priority 2007, dated 2008)", "key": {"[1]": {"conditions": "for Mittlere Fläche (Lisuridpeakfläche zur totalen Peakfläche des Chromatogramms): 9% Propylenglykol, no buffer, 2 mg/3 mL", "description": "Die Wirkstoffkonzentration wurde auf 2 mg pro 3 mL eingestellt. Es wurde kein Puffersystem hinzugegeben. Das weitere Vorgehen umfasste das Einwiegen von 33.3 mg des Wirkstoffs in einen skalierten 50 mL Kolben, anschließende Zugabe des Propylenglykols (4.5g) sowie die Beigabe von 40 mL Wasser. Der Kolben wurde für mehrere Minuten geschüttelt und anschließend Ultraschall ausgesetzt, bis der Wirkstoff vollständig gelöst war. Der Kolben wurde auf Raumtemperatur abgekühlt und bis zur Markierung mit bidestilliertem Wasser aufgefüllt. Abschließend wurde zur Gewährleistung der Homogenität für eine weitere Minute geschüttelt. Die Lösung wurde in durchsichtige Glasampullen von 1 ml Volumen abgefüllt. Diese wurden luftdicht verschlossen und zum Lichtschutz mit Aluminiumfolie umwickelt. Die Ampullen wurden jeweils bei 6 bis 8°C, 25°C und 40°C aufbewahrt."}, "[2]": {"experiment": "Solubility improvement by cosolvent", "format": "physicochemical", "conditions": "Propylenglykol as low-dosed additive (weniger als 10%)"}, "[3]": {"conditions": "60°C, one week, in the dark, 10080 min", "description": "Als Additive wurden Propylenglykol und Cremophor ELP in Konzentrationen zwischen 1.00 und 10.00% eingesetzt. […] Die Lösungen wurden im Dunkeln in Glasbehältern bei 60°C für eine Woche aufbewahrt."}, "[4]": {"experiment": "Stability of Lisuridhydrogenmaleat in citrate-buffered aqueous solutions (RP-HPLC, UV detection)", "conditions": "citrate buffer; for Färbung / degraded at 4320 h: no cosolvent; for Mittlere Fläche (Lisuridpeakfläche zur totalen Peakfläche des Chromatogramms): t 0 d; for degraded at 4320 h: 180 Tage, protected from light"}, "[5]": {"experiment": "Solubility of free ergoline compounds in water / phosphate-buffered solution", "format": "physicochemical", "conditions": "for Löslichkeit in Wasser: compared with Lisurid; for solubility: free compound, read-out: Löslichkeit", "experimental": "Für strukturverwandte Wirkstoffe, welche auf derselben Grundstruktur basieren, können ähnliche physikalischchemische Aktivitäten in vitro, in vivo sowie in klinischen Studien erwartet werden. Die Lisuridderivate Tergurid und Protergurid weisen Alkylsubstituenten am Stickstoff (N6) der Grundstruktur sowie eine Einfachbindung zwischen den Positionen 9 und 10 auf. […] Die Löslichkeit des freien Protergurid beträgt beispielsweise 2.6 mg/100 mL in einer phosphatgepufferten Lösung (pH 7.4). Die Löslichkeit des freien Lisurids kann entsprechend auf 2.2 mg/100 mL abgeschätzt werden, wobei dieser Wert aus den Löslichkeitsdaten der jeweiligen Wirkstoffe/Wirkstoffsalze kalkuliert wurde (Zimmermann I (1983) International Journal of Pharmaceutics 13: 57-65)."}, "[6]": {"conditions": "oral, daily; 17th Report of the Joint FAO/WHO Expert Committee on Food Additives, 1974; cited from earlier work"}}, "note": "Where two headings read alike, the source gives them in different places.", "data": [{"smiles": "CCN(CC)C(=O)N[C@H]1C=C2c3cccc4[nH]cc(c34)C[C@H]2N(C)C1", "note": "[Lisuridhydrogenmaleat]", "values": [{"measurement": "Wirkstoff zersetzt", "setting": "[1]; 40°C, 180 Tage, 9% Propylenglykol (cosolvent)", "value": "~10", "unit": "%"}, {"measurement": "Mittlere Fläche (Lisuridpeakfläche zur totalen Peakfläche des Chromatogramms)", "setting": "[1]; Erhöhte Temperatur (40°C), t 0 d", "value": 99.80, "unit": "Prozent"}, {"measurement": "Mittlere Fläche (Lisuridpeakfläche zur totalen Peakfläche des Chromatogramms)", "setting": "[1]; Erhöhte Temperatur (40°C), t 7 d", "value": 99.33, "unit": "Prozent"}, {"measurement": "Mittlere Fläche (Lisuridpeakfläche zur totalen Peakfläche des Chromatogramms)", "setting": "[1]; Erhöhte Temperatur (40°C), t 30 d", "value": 97.59, "unit": "Prozent"}, {"measurement": "Mittlere Fläche (Lisuridpeakfläche zur totalen Peakfläche des Chromatogramms)", "setting": "[1]; Erhöhte Temperatur (40°C), t 90 d", "value": 94.06, "unit": "Prozent"}, {"measurement": "Mittlere Fläche (Lisuridpeakfläche zur totalen Peakfläche des Chromatogramms)", "setting": "[1]; Erhöhte Temperatur (40°C), t 180 d", "value": 89.76, "unit": "Prozent"}, {"measurement": "Wirkstoff zerfallen", "setting": "[1]; Kühlschrank (6-8°C), 180 Tage, protected from light, 9% Propylenglykol (cosolvent)", "value": "~0.4", "unit": "%"}, {"measurement": "Mittlere Fläche (Lisuridpeakfläche zur totalen Peakfläche des Chromatogramms)", "setting": "[1]; Kühlschrank (6-8°C), t 0 d", "value": 99.80, "unit": "Prozent"}, {"measurement": "Mittlere Fläche (Lisuridpeakfläche zur totalen Peakfläche des Chromatogramms)", "setting": "[1]; Kühlschrank (6-8°C), t 30 d", "value": 99.67, "unit": "Prozent"}, {"measurement": "Mittlere Fläche (Lisuridpeakfläche zur totalen Peakfläche des Chromatogramms)", "setting": "[1]; Kühlschrank (6-8°C), t 90 d", "value": 99.52, "unit": "Prozent"}, {"measurement": "Mittlere Fläche (Lisuridpeakfläche zur totalen Peakfläche des Chromatogramms)", "setting": "[1]; Raumtemperatur (25°C), t 0 d", "value": 99.80, "unit": "Prozent"}, {"measurement": "Mittlere Fläche (Lisuridpeakfläche zur totalen Peakfläche des Chromatogramms)", "setting": "[1]; Raumtemperatur (25°C), t 30 d", "value": 99.46, "unit": "Prozent"}, {"measurement": "Mittlere Fläche (Lisuridpeakfläche zur totalen Peakfläche des Chromatogramms)", "setting": "[1]; Raumtemperatur (25°C), t 90 d", "value": 99.15, "unit": "Prozent"}, {"measurement": "Mittlere Fläche (Lisuridpeakfläche zur totalen Peakfläche des Chromatogramms)", "setting": "[1]; Raumtemperatur (25°C), t 180 d", "value": 98.35, "unit": "Prozent"}, {"measurement": "Löslichkeit des Wirkstoffs", "setting": "[2]", "value": "verbesserten Löslichkeit"}, {"measurement": "Wirkstoff zerfallen", "setting": "[3]; 1% Cremophor ELP", "value": "14,3%"}, {"measurement": "Wirkstoff zerfallen", "setting": "[3]; 10% Cremophor ELP", "value": 21.3, "unit": "%"}, {"measurement": "Färbung", "setting": "[4]; 40°C, after 30 Tagen", "value": "signifikante gelbe Färbung"}, {"measurement": "Färbung", "setting": "[4]; 40°C, after weiteren 60 Tagen (following the first 30)", "value": "Braun"}, {"measurement": "Mittlere Fläche (Lisuridpeakfläche zur totalen Peakfläche des Chromatogramms)", "setting": "[4]; Erhöhte Temperatur (40°C), pH 3.5, 2 mg/3 mL", "value": "99,87 Prozent"}, {"measurement": "Mittlere Fläche (Lisuridpeakfläche zur totalen Peakfläche des Chromatogramms)", "setting": "[4]; Erhöhte Temperatur (40°C), pH 4.5, 2 mg/3 mL", "value": "99,79 Prozent"}, {"measurement": "Mittlere Fläche (Lisuridpeakfläche zur totalen Peakfläche des Chromatogramms)", "setting": "[4]; Erhöhte Temperatur (40°C), pH 5.1, 2 mg/3 mL", "value": "100,00 Prozent"}, {"measurement": "Mittlere Fläche (Lisuridpeakfläche zur totalen Peakfläche des Chromatogramms)", "setting": "[4]; Kühlschrank (6-8°C), pH 3.5, 2 mg/3 mL", "value": "99,87 Prozent"}, {"measurement": "Mittlere Fläche (Lisuridpeakfläche zur totalen Peakfläche des Chromatogramms)", "setting": "[4]; Kühlschrank (6-8°C), pH 4.5, 2 mg/3 mL", "value": "99,79 Prozent"}, {"measurement": "Mittlere Fläche (Lisuridpeakfläche zur totalen Peakfläche des Chromatogramms)", "setting": "[4]; Kühlschrank (6-8°C), pH 5.1, 2 mg/3 mL", "value": "100,00 Prozent"}, {"measurement": "Mittlere Fläche (Lisuridpeakfläche zur totalen Peakfläche des Chromatogramms)", "setting": "[4]; Raumtemperatur (25°C), pH 3.5, 2 mg/3 mL", "value": "99,87 Prozent"}, {"measurement": "Mittlere Fläche (Lisuridpeakfläche zur totalen Peakfläche des Chromatogramms)", "setting": "[4]; Raumtemperatur (25°C), pH 4.5, 2 mg/3 mL", "value": "99,79 Prozent"}, {"measurement": "Mittlere Fläche (Lisuridpeakfläche zur totalen Peakfläche des Chromatogramms)", "setting": "[4]; Raumtemperatur (25°C), pH 5.1, 2 mg/3 mL", "value": "100,00 Prozent"}, {"measurement": "degraded at 4320 h", "setting": "[4]; Wirkstoff zersetzt, 40°C", "value": "≤ 30", "unit": "%"}, {"measurement": "degraded at 4320 h", "setting": "[4]; Zersetzung, Kühlschrank (6-8°C)", "value": "~0.7", "unit": "%"}, {"measurement": "remaining at 720 h", "setting": "[4]; pH 3.5, Mittlere Fläche (Lisuridpeakfläche zur totalen Peakfläche des Chromatogramms), Erhöhte Temperatur (40°C), pH 3.5, t 30 d, 2 mg/3 mL", "value": 90.4, "unit": "%"}, {"measurement": "remaining at 2160 h", "setting": "[4]; pH 3.5, Mittlere Fläche (Lisuridpeakfläche zur totalen Peakfläche des Chromatogramms), Erhöhte Temperatur (40°C), pH 3.5, t 90 d, 2 mg/3 mL", "value": 73.4, "unit": "%"}, {"measurement": "remaining at 4320 h", "setting": "[4]; pH 3.5, Mittlere Fläche (Lisuridpeakfläche zur totalen Peakfläche des Chromatogramms), Erhöhte Temperatur (40°C), pH 3.5, t 180 d, 2 mg/3 mL", "value": 69.9, "unit": "%"}, {"measurement": "remaining at 2160 h", "setting": "[4]; pH 4.5, Mittlere Fläche (Lisuridpeakfläche zur totalen Peakfläche des Chromatogramms), Erhöhte Temperatur (40°C), pH 4.5, t 90 d, 2 mg/3 mL", "value": 90.4, "unit": "%"}, {"measurement": "remaining at 4320 h", "setting": "[4]; pH 4.5, Mittlere Fläche (Lisuridpeakfläche zur totalen Peakfläche des Chromatogramms), Erhöhte Temperatur (40°C), pH 4.5, t 180 d, 2 mg/3 mL", "value": 87.7, "unit": "%"}, {"measurement": "remaining at 4320 h", "setting": "[4]; pH 5.1, Mittlere Fläche (Lisuridpeakfläche zur totalen Peakfläche des Chromatogramms), Erhöhte Temperatur (40°C), pH 5.1, t 180 d, 2 mg/3 mL", "value": 88, "unit": "%"}, {"measurement": "degraded at 4320 h", "setting": "[4]; pH 5.1, Zersetzung, Raumtemperatur (25°C), citrate buffer pH 5.1, 4.5, 3.5", "value": 5, "unit": "%"}]}, {"smiles": "CCCN1C[C@@H](NC(=O)N(CC)CC)C[C@@H]2c3cccc4[nH]cc(c34)C[C@H]21", "note": "[Protergurid]", "values": [{"measurement": "Löslichkeit in Wasser", "setting": "[5]", "value": "vergleichbare Löslichkeit in Wasser wie Lisurid"}, {"measurement": "solubility", "setting": "[5]; phosphate-buffered solution, phosphatgepufferte Lösung (pH 7.4)", "value": 26, "unit": "µg/mL"}]}, {"smiles": "CCN(CC)C(=O)N[C@H]1C=C2c3cccc4[nH]cc(c34)C[C@H]2N(C)C1", "note": "[Lisurid]", "values": [{"measurement": "solubility", "setting": "[5]; estimated, calculated from solubility data of the drugs/drug salts (Zimmermann 1983)", "value": "~22", "unit": "µg/mL"}]}, {"smiles": "CC(O)CO", "note": "(stereo not drawn) [Propylenglykol, 1,2-Propandiol (Propylenglykol)]", "values": [{"measurement": "geschätzte Menge, welche als tägliche orale Dosis akzeptabel ist", "setting": "[6]", "value": 25, "unit": "mg/kg kg"}]}, {"smiles": "CCN(CC)C(=O)N[C@H]1C[C@@H]2c3cccc4[nH]cc(c34)C[C@H]2N(C)C1", "note": "[Tergurid]", "values": [{"measurement": "Löslichkeit in Wasser", "setting": "[5]", "value": "vergleichbare Löslichkeit in Wasser wie Lisurid"}]}]}
